Like-named read-outs stand apart in the source and are kept apart here.
Legend:
Conditions in all cases: PKIS2 primary screening
endogenous TFEB = assay: TFEB nuclear translocation, immunocytochemistry high-content imaging; assay type: cell-based
SH-SY5Y cells [1] = assay: Nuclear count from microscopy images (cellular growth and toxicity); further: reference of the scale not given here
SH-SY5Y cells [2] = system: SH-SY5Y cells; further: reference of the scale not given here
endogenous TFE3 = assay: TFE3 nuclear translocation, immunocytochemistry high-content imaging; assay type: cell-based
SH-SY5Y cells [3] = assay: AK (adenylate kinase) release ToxiLight cytotoxicity assay; further: reference of the scale not given here

SMILES	TFEB % (endogenous TFEB) [%]	Nuclear Count (SH-SY5Y cells [1])	DQ Intensity (SH-SY5Y cells [2])	DQ Spot (SH-SY5Y cells [2])	TFE3 % (endogenous TFE3) [%]	AK (SH-SY5Y cells [3])	DQ Intensity (SH-SY5Y cells [2]; DQ Red BSA intensity)	DQ Spot (SH-SY5Y cells [2]; DQ Red BSA spot count)
NC(=O)c1cc(-c2ccccc2)cc2c(C3CCNCC3)c[nH]c12 [UNC10225015A]	3.89	93.78	84.06	101.36	15.20	102.13	–	–
Cc1ccc(NC(=O)Nc2cccc(Cl)c2)cc1-c1ccc(C(=O)Nc2ccncc2)cc1 [UNC10225019A]	7.29	106.82	128.25	121.60	11.19	95.29	–	–
c1ccc(-c2cnc3nccnn23)cc1 [UNC10225020A]	8.54	110.84	109.95	119.05	11.36	125.59	–	–
Cc1ccc(NC(=O)c2cccc(N3CCCCC3)c2)cc1-c1ccc(C(=O)NCC2CC2)cc1 [UNC10225021A]	6.38	118.95	102.66	94.61	7.57	68.90	–	–
NCCNS(=O)(=O)c1ccc(-c2ccnc3[nH]ccc23)cc1 [UNC10225023A]	3.25	129.56	–	–	9.07	82.12	104.54	94.72
NCCNS(=O)(=O)c1ccc(-c2ccnc3[nH]ccc23)cc1 [UNC10225023B]	3.92	135.88	–	–	14.03	72.23	110.40	102.49
O=c1cc(N2CCOCC2)nc2n(Cc3cccc(C(F)(F)F)c3)ccn12 [UNC10225024A]	3.55	98.56	73.22	100.00	12.11	84.29	–	–
COc1cccc(-c2nc(-c3ccccc3)[nH]c2-c2ccncc2)c1 [UNC10225025A]	4.20	132.30	–	–	10.01	113.94	97.17	101.78
Cc1cccc(Nc2nc(NCCN)ncc2C(N)=O)c1 [UNC10225029A]	4.35	111.31	100.58	100.70	9.09	118.19	–	–
CNc1nccc(-c2c(-c3ccc(F)cc3)ncn2CCCN2CCOCC2)n1 [UNC10225031A]	8.16	102.35	87.71	104.14	11.89	73.64	–	–
Cn1cncc1-c1cc2c(Nc3ccc(OCc4ccccc4)cc3)ncnc2cn1 [UNC10225035A]	6.44	109.40	–	–	18.86	76.24	110.55	106.44
Cc1ccc(NC(=O)c2ccnc(N3CCCCC3)c2)cc1-c1ccc(C(=O)NCC2CC2)cc1 [UNC10225036A]	5.85	108.51	84.91	99.52	6.82	94.08	–	–
Cn1cc(-c2ccc3c(c2)CCN3C(=O)Cc2cccc(Cl)c2)c2c(N)ncnc21 [UNC10225039A]	7.96	137.18	87.65	95.36	17.54	96.09	–	–
COc1ccc(NC(=O)c2ccoc2)cc1-c1ccc(C(=O)NCC2CC2)cc1 [UNC10225046A]	6.55	104.87	103.40	103.73	9.04	86.14	–	–

— PMC9851200, “Multiparameter phenotypic screening for endogenous TFEB and TFE3 translocation identifies novel chemical series modulating lysosome function” (Autophagy, 2022)
